Key:
[1] = system: telomere repeat DNA in LOX cells; test: Telomere length analysis (PFGE, Southern blot) of LOX cells; assay type: cell-based, human; settings: for telomere repeat DNA signals: TLA
Experimental: Genomic DNA was isolated from cells using a genomic DNA purification kit (Promega) and digested with AluI and MboI. Digested genomic DNA was purified by phenol/choloroform extraction and quantified using a Qubit 4 Fluorometer (Thermal Scientific). Equal amounts of digested DNA (5 μg) were separated by pulse-field gel electrophoresis (PFGE) performed with a 1% agarose gel at 6V/cm, switch times from 1 to 12s, 15 °C for 12h using CHEF-DRIII system (Bio-Rad). The DNA was transferred to GeneScreen Plus blotting membranes (Perkin-Elmer) and analyzed by Southern blot. The blots were hybridized with a 32P-labeled telomere repeat or […]
Alu probe at 42 °C overnight, then washed twice for 5 min each with 0.2 M wash buffer (0.2 M Na2HPO4 pH 7.2, 1 mM EDTA, and 2% SDS) at room temperature and once for 10 min with 0.1 M wash buffer at 42°C. Relative telomere-repeat signals were determined by Typhoon 9410 Imager and ImageQuant TL software (GE Healthcare). Signal intensity represents the percentage decrease of average telomere signals relative to dox (-) or PP control. […]
100, 1 mM EDTA in 1x PBS) before immuno-staining. Primary antibodies were prepared in blocking solution at following dilutions: anti-53BP1 (1:500, IHC-00001; Bethyl Laboratories) and γH2AX (1:2,000, A300-081A; Bethyl Laboratories). After IF, cells were fixed in 4% paraformaldehyde in 1x PBS for 10 min, washed in 1x PBS, dehydrated in ethanol series (70%, 95%, 100%), and air-dried. Coverslips were denatured for 5 min at 80-85° C in hybridization mix [70% formamide, 10 mM Tris-HCl, pH 7.2, and 0.5% blocking solution (Roche)] containing telomeric PNA-Cy3-(CCCTAA)3 probe, and hybridization was continued for 2 hrs at room temperature in the dark moisturized chambers. Coverslips were washed twice for 15 min each with 70% formamide, 10 mM Tris-HCl (pH 7.2), and 0.1% BSA, and followed by three washes for 5 min each with 0.15 M NaCl, 0.1 M Tris-HCl (pH 7.2), and 0.08% Tween-20. Nuclei were counterstained with 0.1 µg/ml DAPI in blocking solution and coverslips mounted with VectorShield (Vector Laboratories). RNA FISH was performed as previously described 1.
Images were captured with a 100x lens on a Nikon E600 Upright microscope (Nikon

EBNA1 G4 RNA = test: FP assay, compound binding to EBNA1 G4 RNA
Experimental: (§1) All the nucleic acids, peptides and chemicals were dissolved in buffer containing 20 mM HEPES pH7.5, 150 mM salt (KCl, NaCl, LiCl) at the stock concentration of 1 mM. For peptide and nucleic acid interactions, 25μL of each nucleic acids with a sequential twofold dilutions starting from 50 μM was added into each well of 96-well plate followed by adding 25μL of 10 nM FITC labeled TRF2 peptide. For compounds and nucleic acid interactions, 20μL of each compounds with a sequential twofold dilutions starting from 50 μM were added into each well of 96-well plate followed by adding 5μL of 20 ng/mL tRNA and 25μL of 10 nM FAM labeled nucleic acids. For inhibition assay, 5μL FITC labeled TRF2 GAR peptide (10 nM final concentration) and 10 μL oligos (5 μM final concentration) were mixed, followed by adding 5μL of each compound with a sequential twofold dilutions starting from 50 μM into each well of 384-well plate. All components were mixed thoroughly, and the plate was incubated at room temperature for 1 h before placing in an Envision Plate Reader for reading at 495/520 nm. All data curves were fitted using Prism 8.0.

[2] = system: TERRA (5'-fluorescein) (RNA, G4) UUAGGGUUAGGGUUAGGGUUAGGG; test: fluorescence polarization; settings: 150 mM KCl, NaCl or LiCl (salt not specified); 20 mM HEPES; 20 mM HEPES pH 7.5, room temperature, tRNA competitor added, 10 nM probe; apparent
[3] = system: TRF2 binding to telomere DNA; test: DNA ChIP assay of TRF2 binding to telomere DNA in LOX cells; assay type: cell-based, human; settings: 2 μM, 2 days
Experimental: The lysates were sonicated, cleared by centrifugation, and supernatants were diluted 10 fold into IP Buffer (0.01% SDS, 1.1% Triton X-100, 1.2mM EDTA, 16.7mM Tris pH 8.1, 167mM NaCl, protease inhibitors cocktail, 50U/ml SUPERase•in) for IP reaction with rabbit IgG (Santa Cruz Biotechnology) or rabbit polyclonal anti-TRF2 (Pocono Rabbit Farm) at 4 ° C overnight. Each immune complex was collected by Dynal A beads (Invitrogen), washed five times (1 ml wash, 10 mins each) in ChIP related wash buffer at 4 ° C, eluted by addition of 200µl Elution buffer (10mM Tris, pH 8.0, 5mM EDTA, 1% SDS, 50U/ml SUPERase.In) at 70 °C for 20 mins, and the elutes were placed at 70 °C for 2 hrs to reverse cross-linking. […]
DNA ChIP assays was performed as described previously 3 with minor modifications. Briefly, 1 x 10^7 LOX cells treated with indicated chemicals (2 µM) for 48 hrs were subject to ChIP analysis and immunoprecipitated DNA was assayed by DNA dot-blot using 32P-labeled (TTAGGG)4 or Alu probe. […]

TERRA in LOX cells = test: TERRA levels by RNA dot blot and Northern blot in LOX cells; assay type: cell-based, human; settings: 2 μM, 3 days; for accumulation of TERRA as a shorter form: Northern blot
TeloDNA and TRF2 complex = test: FP inhibition assay, TRF2 GAR binding to TeloDNA; settings: 10 nM peptide, 5 μM oligo
Experimental: as §1

Structure (SMILES) | telomere repeat DNA signals [1] | EC50 (EBNA1 G4 RNA) [nM] | binding to EBNA1 G4 RNA (EBNA1 G4 RNA) | EC50 [2] [nM] | effect on TRF2 binding to telomere DNA [3] | accumulation of TERRA as a shorter form (TERRA in LOX cells) | IC50 (TeloDNA and TRF2 complex) [nM] | average telomere length ([1]; 2 μM, 2 and 3 days) | total TERRA levels relative to PP control (TERRA in LOX cells; RNA dot blot and Northern blot)
CN(C)c1ccc(Nc2c3ccc(NC(=O)CCN4CCCC4)cc3nc3cc(NC(=O)CCN4CCCC4)ccc23)cc1 [BRACO-19] | to a lesser extent | 227 | high binding affinity | 7400 | Neither NMM, PP, nor BRACO-19 had any significant effect | not observed | 40 |  | 
CCc1c(C)c2cc3nc(cc4nc(cc5c(CC)c(C)c(cc1[nH]2)n5C)C(C)=C4CCC(=O)O)C(CCC(=O)O)=C3C [NMM, N-methyl mesoporphyrin IX] | reduced telomere repeat DNA signals |  | did not display any binding | 680 | Neither NMM, PP, nor BRACO-19 had any significant effect | accumulated as a shorter form | 1000 | decrease in average telomere length | reduced total TERRA levels

Reference: PMC7876106 (Scientific Reports, 2021)
